Data published in patent US8426408B2, “Pyrimidine inhibitors of kinases” (AbbVie Inc., priority 2009, dated 2013).

Columns and labels:
KDR = KDR (Homo sapiens, UniProt P35968); assay: KDR cellular assay (KDR receptor phosphorylation ELISA); type: cell-based; design: expressed in transfected cells; host or cells: 3T3 (embryonic mouse) cells; conditions: KDR transfected 3T3 (embryonic mouse) cells, VEGF stimulated; read-out: IC50 inhibition of KDR phosphorylation
Summary of the method: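 KDR-transfected mouse 3T3 cells treated 20 min at 37° C with half-log compound dilutions, then stimulated 10 min with VEGF (100 ng/ml solution). Lysates captured on anti-KDR plates; phosphorylation by biotin antibody/streptavidin-HRP ELISA at 450 nm. IC50 by non-linear regression.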

NCI-H1299 cells = assay: Induction of polyploidy in H1299; type: cell-based, Human; conditions: NCI-H1299, 48 hours; for EC15: Homo sapiens, read-out: EC15 (concentration of inhibitor necessary to induce polyploidy in 15% of cells)
Summary of the method: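 NCI-H1299 cells in RPMI 1640/10% FCS were treated with inhibitor concentrations in duplicate for 48 h at 37 C, then formalin-fixed and Hoechst-stained. Nuclear area was measured by high-content imaging, with polyploid (≥4N) defined as >750 μ^2. EC15 was derived by least-squares fit of log dose-response.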

Sequence of KDR (P35968 20-1356): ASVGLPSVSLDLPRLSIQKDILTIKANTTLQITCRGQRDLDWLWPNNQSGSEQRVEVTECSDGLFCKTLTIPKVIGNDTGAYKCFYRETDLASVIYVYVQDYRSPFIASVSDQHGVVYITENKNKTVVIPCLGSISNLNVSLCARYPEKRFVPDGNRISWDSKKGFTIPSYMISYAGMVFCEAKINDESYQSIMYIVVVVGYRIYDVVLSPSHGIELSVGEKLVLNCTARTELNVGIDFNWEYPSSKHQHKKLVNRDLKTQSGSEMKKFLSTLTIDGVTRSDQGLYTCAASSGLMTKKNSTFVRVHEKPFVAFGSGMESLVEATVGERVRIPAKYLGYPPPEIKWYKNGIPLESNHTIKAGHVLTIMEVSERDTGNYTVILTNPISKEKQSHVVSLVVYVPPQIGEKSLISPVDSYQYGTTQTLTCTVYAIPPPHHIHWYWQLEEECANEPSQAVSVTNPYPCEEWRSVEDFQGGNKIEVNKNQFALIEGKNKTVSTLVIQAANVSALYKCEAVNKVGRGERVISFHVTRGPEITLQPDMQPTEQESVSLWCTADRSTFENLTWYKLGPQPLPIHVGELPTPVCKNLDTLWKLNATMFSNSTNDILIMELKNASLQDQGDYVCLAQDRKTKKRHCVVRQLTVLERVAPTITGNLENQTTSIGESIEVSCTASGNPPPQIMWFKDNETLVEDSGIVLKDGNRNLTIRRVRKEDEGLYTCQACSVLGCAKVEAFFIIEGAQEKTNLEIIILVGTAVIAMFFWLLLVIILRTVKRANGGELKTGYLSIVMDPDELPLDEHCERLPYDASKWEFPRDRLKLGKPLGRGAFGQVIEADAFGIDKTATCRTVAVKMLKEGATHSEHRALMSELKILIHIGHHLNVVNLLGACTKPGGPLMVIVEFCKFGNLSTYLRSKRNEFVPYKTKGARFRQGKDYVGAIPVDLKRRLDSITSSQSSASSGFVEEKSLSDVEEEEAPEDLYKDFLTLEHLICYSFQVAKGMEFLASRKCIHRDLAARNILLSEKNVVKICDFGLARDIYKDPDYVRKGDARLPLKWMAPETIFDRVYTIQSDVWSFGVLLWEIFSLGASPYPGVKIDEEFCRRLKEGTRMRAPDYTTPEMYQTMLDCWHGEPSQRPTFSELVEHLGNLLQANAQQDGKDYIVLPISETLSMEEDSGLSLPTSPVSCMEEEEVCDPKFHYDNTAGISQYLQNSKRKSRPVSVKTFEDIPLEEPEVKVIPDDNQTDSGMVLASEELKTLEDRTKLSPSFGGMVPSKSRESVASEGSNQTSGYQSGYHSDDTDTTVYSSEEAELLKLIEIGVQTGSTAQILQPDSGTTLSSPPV

SMILES | IC50 (KDR) | EC15 (concentration of inhibitor necessary to induce polyploidy in 15% of cells) (NCI-H1299 cells) | EC15 (NCI-H1299 cells)
CCn1cc(Nc2ncc(C(F)(F)F)c(N[C@@H]3[C@H](C(N)=O)[C@H]4C=C[C@@H]3C4)n2)cn1.CCn1cc(Nc2ncc(C(F)(F)F)c(N[C@H]3[C@@H](C(N)=O)[C@@H]4C=C[C@H]3C4)n2)cn1 (mixture of isomers) [Example 22, (1S,2S,3R,4R)-3-{[2-[(1-ethyl-1H-pyrazol-4-yl)amino]-5-(trifluoromethyl)pyrimidin-4-yl]amino}bicyclo[2.2.1]hept-5-ene-2-carboxamide and (1R,2R,3S,4S)-3-{[2-[(1-ethyl-1H-pyrazol-4-yl)amino]-5-(trifluoromethyl)pyrimidin-4-yl]amino}bicyclo[2.2.1]hept-5-ene-2-carboxamide] | < 100 nM | A (“A” represents an EC15 of less than 0.1 μM) | –
Cc1nn(C)cc1Nc1ncc(Br)c(N[C@H]2[C@@H](C(N)=O)[C@@H]3C=C[C@H]2C3)n1 [Example 135, (1S,2S,3R,4R)-3-({5-bromo-2-[(1,3-dimethyl-1H-pyrazol-4-yl)amino]pyrimidin-4-yl}amino)bicyclo[2.2.1]hept-5-ene-2-carboxamide] | < 100 nM | – | < 100 nM
CNC(=O)Cn1cc(Nc2ncc(Cl)c(N[C@@H]3[C@H]4CC[C@H](C4)[C@@H]3C(N)=O)n2)cn1 [Example 88, (1R,2S,3R,4S)-3-{[5-chloro-2-({1-[2-(methylamino)-2-oxoethyl]-1H-pyrazol-4-yl}amino)pyrimidin-4-yl]amino}bicyclo[2.2.1]heptane-2-carboxamide] | 100 to 1000 nM | – | 100 to 1000 nM
CCn1cc(Nc2ncc(Br)c(N[C@@H]3[C@H](C(N)=O)[C@H]4C=C[C@@H]3C4)n2)cn1.CCn1cc(Nc2ncc(Br)c(N[C@H]3[C@@H](C(N)=O)[C@@H]4C=C[C@H]3C4)n2)cn1 (mixture of isomers) [Example 31, (1S,2S,3R,4R)-3-({5-bromo-2-[(1-ethyl-1H-pyrazol-4-yl)amino]pyrimidin-4-yl}amino)bicyclo[2.2.1]hept-5-ene-2-carboxamide and (1R,2R,3S,4S)-3-({5-bromo-2-[(1-ethyl-1H-pyrazol-4-yl)amino]pyrimidin-4-yl}amino)bicyclo[2.2.1]hept-5-ene-2-carboxamide] | < 100 nM | A (“A” represents an EC15 of less than 0.1 μM) | –
NC(=O)[C@@H]1[C@H](Nc2nc(Nc3cnn([C@H]4CCOC4)c3)ncc2Cl)[C@H]2C=C[C@@H]1C2 [Example 108, (1S,2S,3R,4R)-3-{[5-chloro-2-({1-[(3S)-tetrahydrofuran-3-yl]-1H-pyrazol-4-yl}amino)pyrimidin-4-yl]amino}bicyclo[2.2.1]hept-5-ene-2-carboxamide] | < 100 nM | – | < 100 nM
NC(=O)[C@@H]1[C@H](Nc2nc(Nc3cnn(CC4CCO4)c3)ncc2Cl)[C@H]2C=C[C@@H]1C2 (stereo partly drawn) [Example 129, (1S,2S,3R,4R)-3-[(5-chloro-2-{[1-(oxetan-2-ylmethyl)-1H-pyrazol-4-yl]amino}pyrimidin-4-yl)amino]bicyclo[2.2.1]hept-5-ene-2-carboxamide] | < 100 nM | – | < 100 nM
CC(C)n1cc(Nc2ncc(Cl)c(N[C@H]3[C@@H](C(N)=O)[C@@H]4C=C[C@H]3C4)n2)cn1 [Example 98, (1S,2S,3R,4R)-3-({5-chloro-2-[(1-isopropyl-1H-pyrazol-4-yl)amino]pyrimidin-4-yl}amino)bicyclo[2.2.1]hept-5-ene-2-carboxamide] | < 100 nM | – | < 100 nM
NC(=O)[C@@H]1[C@H](Nc2nc(Nc3cnn(Cc4ccccc4)c3)ncc2Cl)[C@H]2C=C[C@@H]1C2 [Example 144, (1S,2S,3R,4R)-3-({2-[(1-benzyl-1H-pyrazol-4-yl)amino]-5-chloropyrimidin-4-yl}amino)bicyclo[2.2.1]hept-5-ene-2-carboxamide] | < 100 nM | – | < 100 nM
NC(=O)[C@@H]1[C@H](Nc2nc(Nc3cnn(C4CCC4)c3)ncc2Br)[C@H]2C=C[C@@H]1C2 [Example 123, (1S,2S,3R,4R)-3-({5-bromo-2-[(1-cyclobutyl-1H-pyrazol-4-yl)amino]pyrimidin-4-yl}amino)bicyclo[2.2.1]hept-5-ene-2-carboxamide] | < 100 nM | – | < 100 nM
COCCOCCn1cc(Nc2ncc(Br)c(N[C@H]3[C@@H](C(N)=O)[C@@H]4C=C[C@H]3C4)n2)cn1 [Example 110, (1S,2S,3R,4R)-3-{[5-bromo-2-({1-[2-(2-methoxyethoxy)ethyl]-1H-pyrazol-4-yl}amino)pyrimidin-4-yl]amino}bicyclo[2.2.1]hept-5-ene-2-carboxamide] | < 100 nM | – | < 100 nM
NC(=O)[C@@H]1[C@H](Nc2nc(Nc3cnn([C@@H]4CCOC4)c3)ncc2Br)[C@H]2C=C[C@@H]1C2 [Example 116, (1S,2S,3R,4R)-3-{[5-bromo-2-({1-[(3R)-tetrahydrofuran-3-yl]-1H-pyrazol-4-yl}amino)pyrimidin-4-yl]amino}bicyclo[2.2.1]hept-5-ene-2-carboxamide] | < 100 nM | – | < 100 nM
NC(=O)[C@@H]1[C@H](Nc2nc(Nc3cnn(Cc4ccc(Cl)cc4)c3)ncc2Cl)[C@H]2C=C[C@@H]1C2 [Example 162, (1S,2S,3R,4R)-3-[(5-chloro-2-{[1-(4-chlorobenzyl)-1H-pyrazol-4-yl]amino}pyrimidin-4-yl)amino]bicyclo[2.2.1]hept-5-ene-2-carboxamide] | < 100 nM | – | < 100 nM
NC(=O)[C@@H]1[C@H](Nc2nc(Nc3cnn(CCc4ccccc4)c3)ncc2Cl)[C@H]2C=C[C@@H]1C2 [Example 143, (1S,2S,3R,4R)-3-[(5-chloro-2-{[1-(2-phenylethyl)-1H-pyrazol-4-yl]amino}pyrimidin-4-yl)amino]bicyclo[2.2.1]hept-5-ene-2-carboxamide] | < 100 nM | – | < 100 nM
NC(=O)[C@@H]1[C@H](Nc2nc(Nc3cnn(Cc4ccccc4Cl)c3)ncc2Cl)[C@H]2C=C[C@@H]1C2 [Example 161, (1S,2S,3R,4R)-3-[(5-chloro-2-{[1-(2-chlorobenzyl)-1H-pyrazol-4-yl]amino}pyrimidin-4-yl)amino]bicyclo[2.2.1]hept-5-ene-2-carboxamide] | < 100 nM | – | < 100 nM
Cn1cc(Nc2ncc(C(F)(F)F)c(N[C@@H]3[C@@H]4CC[C@@H](C4)[C@@H]3C(N)=O)n2)cn1.Cn1cc(Nc2ncc(C(F)(F)F)c(N[C@H]3[C@H]4CC[C@H](C4)[C@H]3C(N)=O)n2)cn1 (mixture of isomers) [Example 20, (1S,2S,3R,4R)-3-{[2-[(1-methyl-1H-pyrazol-4-yl)amino]-5-(trifluoromethyl)pyrimidin-4-yl]amino}bicyclo[2.2.1]heptane-2-carboxamide and (1R,2R,3S,4S)-3-{[2-[(1-methyl-1H-pyrazol-4-yl)amino]-5-(trifluoromethyl)pyrimidin-4-yl]amino}bicyclo[2.2.1]heptane-2-carboxamide] | < 100 nM | A (“A” represents an EC15 of less than 0.1 μM) | –
CN1CCN(CCn2cc(Nc3ncc(Cl)c(N[C@@H]4[C@H]5CC[C@H](C5)[C@@H]4C(N)=O)n3)cn2)CC1 [Example 90, (1R,2S,3R,4S)-3-{[5-chloro-2-({1-[2-(4-methylpiperazin-1-yl)ethyl]-1H-pyrazol-4-yl}amino)pyrimidin-4-yl]amino}bicyclo[2.2.1]heptane-2-carboxamide] | < 100 nM | – | 100 to 1000 nM
NC(=O)[C@@H]1[C@H](Nc2nc(Nc3cnn(-c4ccccc4)c3)ncc2Cl)[C@H]2C=C[C@@H]1C2 [Example 174, (1S,2S,3R,4R)-3-({5-chloro-2-[(1-phenyl-1H-pyrazol-4-yl)amino]pyrimidin-4-yl}amino)bicyclo[2.2.1]hept-5-ene-2-carboxamide] | < 100 nM | – | < 100 nM
COc1cccc(Cn2cc(Nc3ncc(Br)c(N[C@H]4[C@@H](C(N)=O)[C@@H]5C=C[C@H]4C5)n3)cn2)c1 [Example 159, (1S,2S,3R,4R)-3-[(5-bromo-2-{[1-(3-methoxybenzyl)-1H-pyrazol-4-yl]amino}pyrimidin-4-yl)amino]bicyclo[2.2.1]hept-5-ene-2-carboxamide] | < 100 nM | – | < 100 nM
Cc1cccc(Cn2cc(Nc3ncc(Cl)c(N[C@H]4[C@@H](C(N)=O)[C@@H]5C=C[C@H]4C5)n3)cn2)c1 [Example 178, (1S,2S,3R,4R)-3-[(5-chloro-2-{[1-(3-methylbenzyl)-1H-pyrazol-4-yl]amino}pyrimidin-4-yl)amino]bicyclo[2.2.1]hept-5-ene-2-carboxamide] | < 100 nM | – | < 100 nM
COc1ccc(Cn2cc(Nc3ncc(Cl)c(N[C@H]4[C@@H](C(N)=O)[C@@H]5C=C[C@H]4C5)n3)cn2)cc1F [Example 192, (1S,2S,3R,4R)-3-[(5-chloro-2-{[1-(3-fluoro-4-methoxybenzyl)-1H-pyrazol-4-yl]amino}pyrimidin-4-yl)amino]bicyclo[2.2.1]hept-5-ene-2-carboxamide] | < 100 nM | – | < 100 nM
CCn1cc(Nc2ncc([N+](=O)[O-])c(N[C@H]3[C@@H](C(N)=O)[C@@H]4C=C[C@H]3C4)n2)cn1 [Example 140, (1S,2S,3R,4R)-3-({2-[(1-ethyl-1H-pyrazol-4-yl)amino]-5-nitropyrimidin-4-yl}amino)bicyclo[2.2.1]hept-5-ene-2-carboxamide] | 100 to 1000 nM | – | < 100 nM
Cn1cc(Nc2ncc(C(F)(F)F)c(Nc3ccccc3C3(O)CCC3)n2)cn1 [Example 115, 1-[2-({2-[(1-methyl-1H-pyrazol-4-yl)amino]-5-(trifluoromethyl)pyrimidin-4-yl}amino)phenyl]cyclobutanol] | 100 to 1000 nM | – | < 100 nM
